Results taken from ChEMBL document CHEMBL1142345, “Synthesis and biological evaluation of alpha- and beta-6-amido derivatives of 17-cyclopropylmethyl-3, 14beta-dihydroxy-4, 5alpha-epoxymorphinan: potential alcohol-cessation agents” (J Med Chem, 2008).
Calls of active or inactive are those of the source. The rule behind the calls is not given here.

What was measured:
[1] = biological target: T1, Delta-type opioid receptor (Homo sapiens, UniProt P41143); experiment: Activity at human delta opioid receptor by [35S]GTPgammaS binding assay; format: functional
[2] = biological target: T2, Kappa-type opioid receptor (Homo sapiens, UniProt P41145); experiment: Displacement of [3H]U69593 from human kappa opioid receptor expressed in CHO cells; format: cell-based
[3] = biological target: T3, Mu-type opioid receptor (Homo sapiens, UniProt P35372)
Description: Activity at human mu opioid receptor by [35S]GTPgammaS binding assay

[4] = organism: Homo sapiens; experiment: Selectivity ratio of Ki for human mu opioid receptor over Ki for human kappa opioid receptor
[5] = biological target: T1, Delta-type opioid receptor; experiment: biochemical
Description: Displacement of [3H]DPDPE from human delta opioid receptor expressed in CHO cells

[6] = biological target: T3, Mu-type opioid receptor; experiment: Displacement of [3H]DAMGO from human mu opioid receptor expressed in CHO cells; format: cell-based
[7] = organism: Homo sapiens; experiment: Selectivity ratio of Ki for human mu opioid receptor over Ki for human delta opioid receptor
[8] = biological target: CYP2C19 (Homo sapiens, UniProt P33261); experiment: Inhibition of CYP2C19 at 10 uM; format: ADME
[9] = biological target: T4, CYP2B6 (Homo sapiens, UniProt P20813); experiment: Inhibition of CYP2B6 at 10 uM; format: ADME
T4 sequence (P20813 whole entry): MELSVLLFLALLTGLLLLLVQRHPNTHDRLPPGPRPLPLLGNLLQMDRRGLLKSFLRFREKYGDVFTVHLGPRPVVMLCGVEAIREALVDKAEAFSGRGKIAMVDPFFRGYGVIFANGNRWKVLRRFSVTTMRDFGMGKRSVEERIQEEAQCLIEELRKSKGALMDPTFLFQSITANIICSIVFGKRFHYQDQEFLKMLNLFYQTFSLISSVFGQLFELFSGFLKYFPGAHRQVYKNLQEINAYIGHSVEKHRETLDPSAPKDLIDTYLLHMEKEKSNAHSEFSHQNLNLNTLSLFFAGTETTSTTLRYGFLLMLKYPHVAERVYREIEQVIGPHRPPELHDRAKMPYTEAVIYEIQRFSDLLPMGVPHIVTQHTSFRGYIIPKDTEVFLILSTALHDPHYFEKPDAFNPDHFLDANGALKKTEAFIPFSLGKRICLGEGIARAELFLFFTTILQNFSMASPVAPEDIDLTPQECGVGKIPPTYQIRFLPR

[10] = biological target: CYP2D6 (Homo sapiens, UniProt P10635); experiment: in vitro
Description: Inhibition of CYP2D6 at 10 uM

[11] = Metabolic stability assessed as half life in mouse liver microsomes at 40 uM; format: ADME, Microsome
[12] = biological target: CYP3A4 (Homo sapiens, UniProt P08684); experiment: Inhibition of CYP3A4 at 10 uM; format: ADME
[13] = biological target: CYP2C9 (Homo sapiens, UniProt P11712); experiment: Inhibition of CYP2C9 at 10 uM; format: ADME
[14] = organism: Rattus norvegicus; experiment: Inhibition of self alcohol consumption in rat using operant techniques; format: functional
[15] = test system: Rattus norvegicus; experiment: Inhibition of self alcohol consumption in rat at 1.5 mg/kg using operant techniques; format: functional
[16] = biological target: T1, Delta-type opioid receptor; experiment: Agonist activity at human delta opioid receptorR by [35S]GTPgammaS binding assay; format: functional
[17] = biological target: T2, Kappa-type opioid receptor; experiment: Agonist activity at human kappa opioid receptorR by [35S]GTPgammaS binding assay; format: functional
[18] = Metabolic stability assessed as half life in human liver S9 fraction at 40 uM; format: ADME, subcellular

T1 sequence (P41143 whole entry): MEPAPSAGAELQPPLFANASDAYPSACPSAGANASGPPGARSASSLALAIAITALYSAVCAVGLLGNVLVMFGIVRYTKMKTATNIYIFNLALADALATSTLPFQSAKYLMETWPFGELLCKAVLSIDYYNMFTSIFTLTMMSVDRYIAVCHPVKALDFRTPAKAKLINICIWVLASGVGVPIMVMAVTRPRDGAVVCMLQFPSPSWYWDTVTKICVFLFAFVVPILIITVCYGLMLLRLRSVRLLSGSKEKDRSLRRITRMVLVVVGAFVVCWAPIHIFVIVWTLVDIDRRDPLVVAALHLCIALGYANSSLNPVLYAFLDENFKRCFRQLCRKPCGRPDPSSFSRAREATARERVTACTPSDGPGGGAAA
T2 sequence (P41145 whole entry): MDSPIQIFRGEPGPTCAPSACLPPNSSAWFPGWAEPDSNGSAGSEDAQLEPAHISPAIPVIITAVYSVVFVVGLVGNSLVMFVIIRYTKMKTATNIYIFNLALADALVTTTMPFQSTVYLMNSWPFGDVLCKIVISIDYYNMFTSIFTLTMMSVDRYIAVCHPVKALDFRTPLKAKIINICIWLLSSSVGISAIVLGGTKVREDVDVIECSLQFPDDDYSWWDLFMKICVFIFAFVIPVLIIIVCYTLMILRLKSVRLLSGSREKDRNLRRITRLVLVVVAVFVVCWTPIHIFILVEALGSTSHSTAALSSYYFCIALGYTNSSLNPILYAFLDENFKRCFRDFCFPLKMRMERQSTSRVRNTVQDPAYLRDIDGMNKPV
Sequence of CYP2C9 (P11712 whole entry): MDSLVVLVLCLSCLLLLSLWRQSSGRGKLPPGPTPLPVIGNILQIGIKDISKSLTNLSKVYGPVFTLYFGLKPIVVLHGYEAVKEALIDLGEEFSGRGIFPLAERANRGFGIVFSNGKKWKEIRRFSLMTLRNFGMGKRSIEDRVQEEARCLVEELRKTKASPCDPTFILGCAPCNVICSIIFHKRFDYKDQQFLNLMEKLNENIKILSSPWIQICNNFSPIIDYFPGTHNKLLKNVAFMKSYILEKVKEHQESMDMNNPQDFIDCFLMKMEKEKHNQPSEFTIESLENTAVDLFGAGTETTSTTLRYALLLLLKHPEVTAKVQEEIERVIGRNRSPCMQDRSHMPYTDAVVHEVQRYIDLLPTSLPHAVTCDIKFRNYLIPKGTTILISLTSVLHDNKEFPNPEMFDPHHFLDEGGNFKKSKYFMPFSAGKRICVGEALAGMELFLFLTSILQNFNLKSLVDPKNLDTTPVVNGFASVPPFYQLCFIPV
T3 sequence (P35372 whole entry): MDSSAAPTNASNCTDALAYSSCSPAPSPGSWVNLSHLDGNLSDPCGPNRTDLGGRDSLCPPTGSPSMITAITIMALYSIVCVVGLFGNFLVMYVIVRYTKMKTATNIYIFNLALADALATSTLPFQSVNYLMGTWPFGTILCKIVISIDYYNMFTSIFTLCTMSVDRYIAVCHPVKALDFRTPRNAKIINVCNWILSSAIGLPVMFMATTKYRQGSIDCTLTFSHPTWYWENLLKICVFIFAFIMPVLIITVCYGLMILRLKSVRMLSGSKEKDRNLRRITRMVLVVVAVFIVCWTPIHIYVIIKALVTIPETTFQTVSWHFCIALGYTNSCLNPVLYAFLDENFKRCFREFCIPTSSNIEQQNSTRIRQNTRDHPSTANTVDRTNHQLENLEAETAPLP
Sequence of CYP2D6 (P10635 whole entry): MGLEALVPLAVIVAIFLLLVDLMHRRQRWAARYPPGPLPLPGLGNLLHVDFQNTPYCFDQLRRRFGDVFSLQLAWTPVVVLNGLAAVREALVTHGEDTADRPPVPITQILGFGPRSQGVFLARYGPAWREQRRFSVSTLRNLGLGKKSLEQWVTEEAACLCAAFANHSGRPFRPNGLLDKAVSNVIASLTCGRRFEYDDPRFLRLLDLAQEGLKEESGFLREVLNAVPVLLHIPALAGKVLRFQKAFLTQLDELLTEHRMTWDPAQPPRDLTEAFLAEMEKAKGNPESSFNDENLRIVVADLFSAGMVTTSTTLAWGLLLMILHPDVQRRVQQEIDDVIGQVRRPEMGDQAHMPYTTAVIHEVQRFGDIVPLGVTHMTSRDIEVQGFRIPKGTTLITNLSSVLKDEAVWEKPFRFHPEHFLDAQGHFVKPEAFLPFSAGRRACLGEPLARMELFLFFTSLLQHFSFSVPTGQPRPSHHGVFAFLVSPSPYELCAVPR
Sequence of CYP3A4 (P08684 whole entry): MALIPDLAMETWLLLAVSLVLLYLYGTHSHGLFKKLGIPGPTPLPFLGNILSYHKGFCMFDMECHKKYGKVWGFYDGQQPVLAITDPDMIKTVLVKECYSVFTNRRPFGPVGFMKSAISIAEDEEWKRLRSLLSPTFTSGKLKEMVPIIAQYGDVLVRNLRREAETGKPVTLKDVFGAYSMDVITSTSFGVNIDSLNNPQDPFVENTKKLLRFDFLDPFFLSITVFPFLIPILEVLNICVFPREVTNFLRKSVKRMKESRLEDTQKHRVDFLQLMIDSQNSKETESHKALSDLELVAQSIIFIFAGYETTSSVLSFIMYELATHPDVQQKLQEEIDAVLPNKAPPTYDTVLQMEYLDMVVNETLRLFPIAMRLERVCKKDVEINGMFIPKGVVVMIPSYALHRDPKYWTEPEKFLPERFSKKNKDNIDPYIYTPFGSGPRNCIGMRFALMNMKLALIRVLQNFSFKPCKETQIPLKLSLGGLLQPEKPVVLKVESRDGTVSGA
Sequence of CYP2C19 (P33261 whole entry): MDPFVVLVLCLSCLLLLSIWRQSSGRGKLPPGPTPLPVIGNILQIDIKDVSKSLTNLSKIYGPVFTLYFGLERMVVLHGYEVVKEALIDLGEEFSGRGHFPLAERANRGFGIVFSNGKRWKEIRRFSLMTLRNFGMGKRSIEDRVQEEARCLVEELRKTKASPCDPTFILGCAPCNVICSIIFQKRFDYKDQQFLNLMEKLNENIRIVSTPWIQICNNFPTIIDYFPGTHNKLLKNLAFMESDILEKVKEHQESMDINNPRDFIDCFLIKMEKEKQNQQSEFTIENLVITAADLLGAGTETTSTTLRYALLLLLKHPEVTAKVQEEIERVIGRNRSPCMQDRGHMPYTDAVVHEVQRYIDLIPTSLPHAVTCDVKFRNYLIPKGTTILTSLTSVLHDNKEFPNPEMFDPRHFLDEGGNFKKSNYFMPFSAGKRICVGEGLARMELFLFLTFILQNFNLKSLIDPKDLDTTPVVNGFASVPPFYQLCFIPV

Compound | Ki [2] [nM] | Ke [3] [nM] | Ratio Ki [4] | Ki [5] [nM] | Ki [6] [nM] | Ratio Ki [7] | further results
O=C(C[C@@H]1O[C@H](COCc2ccccc2)[C@@H](OCc2ccccc2)[C@H](OCc2ccccc2)[C@H]1OCc1ccccc1)N[C@H]1CC[C@@]2(O)[C@H]3Cc4ccc(O)c5c4[C@@]2(CCN3CC2CC2)[C@H]1O5 | 0.51 | 0.16 | 0.34 | 24.5 | 1.49 | 16.5 | Ke [1]: 10.3 nM
COc1cc(OC)cc(C(=O)N[C@H]2CC[C@@]3(O)[C@H]4Cc5ccc(O)c6c5[C@@]3(CCN4CC3CC3)[C@H]2O6)c1 | 2.41 | – | 13 | 6.83 | 0.19 | 36 | –
O=C(C[C@@H]1O[C@H](CO)[C@@H](O)[C@H](O)[C@H]1O)N[C@@H]1CC[C@@]2(O)[C@H]3Cc4ccc(O)c5c4[C@@]2(CCN3CC2CC2)[C@H]1O5 | 4.5 | 0.37 | 7 | 99 | 0.64 | 150 | –
O=C(Cc1cccs1)N[C@@H]1CC[C@@]2(O)[C@H]3Cc4ccc(O)c5c4[C@@]2(CCN3CC2CC2)[C@H]1O5 | 1.2 | 0.41 | 2.8 | 32.4 | 0.43 | 75 | –
O=C(N[C@@H]1CC[C@@]2(O)[C@H]3Cc4ccc(O)c5c4[C@@]2(CCN3CC2CC2)[C@H]1O5)c1ccccc1 | 0.16 | – | – | – | 0.18 | – | –
O=C(/C=C/Cc1ccccc1)N[C@@H]1CC[C@@]2(O)[C@H]3Cc4ccc(O)c5c4[C@@]2(CCN3CC2CC2)[C@H]1O5 | 0.91 | – | 20 | 8.22 | 0.06 | 100 | –
O=C(N[C@@H]1CC[C@@]2(O)[C@H]3Cc4ccc(O)c5c4[C@@]2(CCN3CC2CC2)[C@H]1O5)c1ccc(Cl)cc1 | – | – | – | – | – | – | inhibition at 10 µM [8]: 39.1%; inhibition at 10 µM [9]: 7%; inhibition at 10 µM [10]: 4.7%; half-life at 40 µM [11]: 255 min; inhibition at 10 µM [12]: 30.8%; inhibition at 10 µM [13]: 28.1%; ED50 [14]: 0.5 mg/kg
COc1ccc(CC(=O)N[C@@H]2CC[C@@]3(O)[C@H]4Cc5ccc(O)c6c5[C@@]3(CCN4CC3CC3)[C@H]2O6)cc1 | 0.42 | – | 1.6 | 19.9 | 0.27 | 74 | –
CN(C)c1cccc(C(=O)NC2CC[C@@]3(O)[C@H]4Cc5ccc(O)c6c5[C@@]3(CCN4CC3CC3)[C@H]2O6)c1 (stereo partly specified) | 1.7 | 0.14 | 1.42 | 8.5 | 1.2 | 7.08 | inhibition in vivo at 1.5 mg/kg [15]: 17%; Activity [16]: Active; Activity [17]: Active; inhibition at 10 µM [8]: 70%; inhibition at 10 µM [10]: 23.5%; inhibition at 10 µM [12]: 39.9%; inhibition at 10 µM [13]: 23.1%
COc1cccc(CC(=O)N[C@@H]2CC[C@@]3(O)[C@H]4Cc5ccc(O)c6c5[C@@]3(CCN4CC3CC3)[C@H]2O6)c1 | 0.45 | – | 3.5 | 15.8 | 0.13 | 120 | –
CC(C)(C)OC(=O)Nc1ccc(C(=O)N[C@@H]2CC[C@@]3(O)[C@H]4Cc5ccc(O)c6c5[C@@]3(CCN4CC3CC3)[C@H]2O6)cc1 | 0.79 | – | 0.86 | 25.3 | 0.92 | 28 | –
COc1cccc(C(=O)N[C@H]2CC[C@@]3(O)[C@H]4Cc5ccc(O)c6c5[C@@]3(CCN4CC3CC3)[C@H]2O6)c1 | 0.72 | – | 4.5 | 5.82 | 0.16 | 36 | half-life at 40 µM [11]: 49 min
C=C1CC[C@@]2(O)[C@H]3Cc4ccc(O)c5c4[C@@]2(CCN3CC2CC2)[C@H]1O5 | – | – | – | – | – | – | half-life at 40 µM [11]: 20 min; half-life at 40 µM [18]: 20 min; inhibition at 10 µM [13]: 35.5%; ED50 [14]: 0.04 mg/kg
